From patent EP0470323A2, “New salts of the nicotinic acid with aminobenzylic compounds and their pharmaceutical use” (BROMLEY LIMITED, priority 1990, dated 1992)

What was measured:
Type in all cases: in vivo
red cells in the rat = experiment: Red cell deformability / filtration, Schmidt-Schönbein method; details: dose 3 x 0,5 mM/kg/os, listed as Compound as Ex. 1
Source text: steresis (Teiltel P.: Nouv. Rev. Franç. Hématol. 7, 195, 1967). Any alteration, almost undoubtely at the level of the red cell's membrane, cause some damaging variations of the red cell's elasticity thus making more difficult the passing through the capillary vessels having more reduced diameter, and therefore increasing the flow resistance in the peripheral vessels systems. In order to determine the effect caused by the compound according to the Example 1, on these features of the red cell, the method described by Schmidt, Schonbein and colleagues (Blut 26, 369, 1973) has been used.
In the circulatory flow, the above mentioned capillary vessels being excluded, the blood cells do normally circulate being attached between each other because of their adhesiveness. In order to study this adhesion force, the above mentioned Teitel method has been used. Male rats of 150 g body weight approximately have been employed, and they have been treated for three consecutive days with 0,5 mM/kg/os of the compound according to the Example 1, or otherwise Buflomedil, or even Pentosiphillin used as comparison substance. After the last treatment the animals, without eating from 18 hours, have been killed in a light ethereal anaesthesy and the blood was collected over an 0,2 molar EDTA (9 and 1 volumes respectively). The red cells filtering possibility, measured with the Teitel method, wherein the quantity of red cells passing, in high haematocritical conditions, through a paper filter with holes of 20-40 µm in a previously determined time, has been ascertained as follows: the blood was centrifuged for ten minutes at 2000 rpm in order to obtain the massing of the red cells, two ml of the blood collected as above were put into an upside down turned cone made with filtering paper, being previously wetted with a physiological solution. The volume passing through the filter in 2 - 4 - 8 and 16 minutes is then measured. […]

[1] = test system: skin temperature of the mouse's paw; experiment: Peripheral vessel-dilating activity in the mouse (skin temperature of hind paws); details: for Temperature (°C) of the hind paws (n=10): intravenous; for Temperature (°C) of the hind paws: oral
Procedure: The method of Richter W. (Acta Pharm. Toxicol. 21, 91; 1974) was used; it consists in determining, at fixed time intervals after the treatment, the skin temperature of the mouse's paw, by keeping the animals in rooms at a constant temperature of 21°C.
Some groups of ten male mouses each have been used; the weight of each animal was 30 g approximately.
The compound according to the Example 1 has been tested "per os" at three basic levels of the doses (0,125 - 0,25 - 0,5 mM/kg) and by intravenous injection at two dose levels (0,015 and 0,03 mM/kg), in comparison with one sole dose of Papaverin and chlorhydrated Buflomedil (0,5 mM/kg "per os" and 0,03m M/kg intravenous). The observation of the skin temperature at the mouse's paw was made before the treatment, 30, 60 and 120 minutes after the "per os" treatment, […] (A-Hl Ellab) connected with an Ellab electric recorder. Of each animal the temperature of both hind paws has been measured, and the values obtained have been averaged .

[2] = test system: Hypertriglyceridaemia caused by ethanole in the rats; experiment: Hypertriglyceridaemia caused by ethanol in rats, duration of the effects; details: rat, dose 1 mM/kg/os
Source text: For this test group the methods described by Sistori C.R. and colleagues (Atherosclerosis 30, 45; 1978) is followed.
The hypertriglyceridaemia has been induced into the male rats having a body weight of 160 - 170 g by giving them to drink, for 4 consecutive days, a solution of 10% ethanole in water.
In order to perform the particular kinetics of the compound in accordance with the example 1 following the instant invention, it was considered appropriate, anyway, to evaluate the duration of the hypolipaemizing effect in comparison to that of the nicotinic acid.
A group of normal animals was treated with the vehicle only and did serve as a negative control group.

[3] = test system: Hypercholesterolaemia caused by Trit WR1339 in the mouses; experiment: Hypercholesterolaemia of the mouse caused by Triton WR 1339; details: for Tot.Cholesterol M ± E.S. / Tot.Lipids M ± E.S.: 20 hours after Triton WR 1339 i.p.; for Tot.Cholesterol % vs contr. / Tot.Lipids % vs contr.: reduction
Procedure: The method described by Garattini S. (Arzneim,Forsch 9, 206; 1959) with some modifications has been followed.
The mouses used have been males of 22 to 28 grams body weight, on an empty stomach but with water "ad libitum" since 12 hours. The hyperlipidaemia was induced by means of an intraperitoneum administration of […] of Triton WR 1339, with dosage 300 mg/kg in a physiological solution. The subject products were administered at the same time in clear plain water, always in a volume of […] by means of a gastric probe. The animals were sacrified after 20 hours, by cutting them the carotids. The blood was collected in some plastic test-tubes, and was centrifuged at 3500 rpm for ten minutes. Thereafter the total cholesterol (Sornay R and colleagues, Arzeneim Forsch, 26,885 1976) and the total lipids (Chonhelmer R and colleagues, Biological Chemistry 106, 745, 1934) were determined.

## COc1cc(OC)c(C(=O)CCCN2CCCC2)c(OC)c1 [Example 1, 4-(1 pyrrholydinyl)-1-(2,4,6 trimethoxypheniyl)-1-nicotinized butanone]
Red cells in the rat
  Schmidt-Schönbein method Δ % vs contr.: 46,2%
[1]; dose 0,015 mM/kg/iv, 0 minutes (before the treatment)
  Temperature (°C) of the hind paws (n=10): 24,3 ± 0,25 °C
[1]; dose 0,015 mM/kg/iv, 30 minutes from the treatment
  Temperature (°C) of the hind paws (n=10): 25,9 ± 0,18 °C
[1]; dose 0,015 mM/kg/iv, 60 minutes from the treatment
  Temperature (°C) of the hind paws (n=10): 25,8 ± 0,30 °C
[1]; dose 0,015 mM/kg/iv, 120 minutes from the treatment
  Temperature (°C) of the hind paws (n=10): 25,4 ± 0,22 °C
[1]; dose 0,030 mM/kg/iv, 0 minutes (before the treatment), listed as Compound according to the Ex.1
  Temperature (°C) of the hind paws (n=10): 24,2 ± 0,20 °C
[1]; dose 0,030 mM/kg/iv, 30 minutes from the treatment, listed as Compound according to the Ex.1
  Temperature (°C) of the hind paws (n=10): 26,7 ± 0,31 °C
[1]; dose 0,030 mM/kg/iv, 60 minutes from the treatment, listed as Compound according to the Ex.1
  Temperature (°C) of the hind paws (n=10): 26,5 ± 0,27 °C
[1]; dose 0,030 mM/kg/iv, 120 minutes from the treatment, listed as Compound according to the Ex.1
  Temperature (°C) of the hind paws (n=10): 26,3 ± 0,30 °C
[1]; dose 0,125 mM/kg/os, 0 minutes (before the treatment)
  Temperature (°C) of the hind paws: 24,3 ± 0,24 °C
[1]; dose 0,125 mM/kg/os, 30 minutes from the treatment
  Temperature (°C) of the hind paws: 24,7 ± 0,32 °C
[1]; dose 0,125 mM/kg/os, 60 minutes from the treatment
  Temperature (°C) of the hind paws: 024,9 ± 0,30 °C
[1]; dose 0,125 mM/kg/os, 120 minutes from the treatment
  Temperature (°C) of the hind paws: 25,2 ± 0,35 °C
[1]; dose 0,250 mM/kg/os, 0 minutes (before the treatment)
  Temperature (°C) of the hind paws: 24,7 ± 0,20 °C
[1]; dose 0,250 mM/kg/os, 30 minutes from the treatment
  Temperature (°C) of the hind paws: 25,2 ± 0,44 °C
[1]; dose 0,250 mM/kg/os, 60 minutes from the treatment
  Temperature (°C) of the hind paws: 25,8 ± 0,32 °C
[1]; dose 0,250 mM/kg/os, 120 minutes from the treatment
  Temperature (°C) of the hind paws: 25,5 ± 0,50 °C
[1]; dose 0,500 mM/kg/os, 0 minutes (before the treatment), listed as Compound according to the Example 1
  Temperature (°C) of the hind paws: 24,6 ± 0,25 °C
[1]; dose 0,500 mM/kg/os, 30 minutes from the treatment, listed as Compound according to the Example 1
  Temperature (°C) of the hind paws: 26,8 ± 0,30 °C
[1]; dose 0,500 mM/kg/os, 60 minutes from the treatment, listed as Compound according to the Example 1
  Temperature (°C) of the hind paws: 27,5 ± 0,40 °C
[1]; dose 0,500 mM/kg/os, 120 minutes from the treatment, listed as Compound according to the Example 1
  Temperature (°C) of the hind paws: 27,2 ± 0,45 °C
[2]; 4 h
  % variation vs positive controls (Trigliceridi): -38,2%
[2]; 4 h from the last treatment
  Trigliceridi: 158,9 ± 11,6 mg/100 ml
[2]; 6 h
  % variation vs positive controls (Trigliceridi): -42,6%
[2]; 6 h from the last treatment
  Trigliceridi: 135,6 ± 10,9 mg/100 ml
[2]; 12 h
  % variation vs positive controls (Trigliceridi): -31,5%
[2]; 12 h from the last treatment
  Trigliceridi: 141,0 ± 21,1 mg/100 ml
[2]; 16 h
  % variation vs positive controls (Trigliceridi): -22,1%
[2]; 16 h from the last treatment
  Trigliceridi: 145,3 ± 12,7 mg/100 ml
[2]; 24 h
  % variation vs positive controls (Trigliceridi): -9,2%
[2]; 24 h from the last treatment
  Trigliceridi: 150,1 ± 8,4 mg/100 ml
[3]; dosage of 2 mM/kg weight
  reduction in both parameters (total cholesterol and total lipids): 43%
[3]; dosage of 5 mM/kg weight
  reduction in both parameters (total cholesterol and total lipids): ~60%
[3]; dose 1 mM/kg per os
  Tot.Cholesterol M ± E.S.: 221 ± 18 mg/100 ml
  Tot.Lipids M ± E.S.: 1721 ± 164 mg/100 ml
  Tot.Cholesterol % vs contr.: 38,3%
  Tot.Lipids % vs contr.: 29,3%
[3]; dose 2 mM/kg per os
  Tot.Cholesterol M ± E.S.: 191 ± 15 mg/100 ml
  Tot.Lipids M ± E.S.: 1315 ± 115 mg/100 ml
  Tot.Cholesterol % vs contr.: 46,6%
  Tot.Lipids % vs contr.: 46,0%
[3]; dose 4 mM/kg per os
  Tot.Cholesterol M ± E.S.: 133 ± 12 mg/100 ml
  Tot.Lipids M ± E.S.: 1008 ± 117 mg/100 ml
  Tot.Cholesterol % vs contr.: 62,8%
  Tot.Lipids % vs contr.: 58,6%
